Test: Tissue distribution (radiometric analysis of excised organs) after tail vein injection of radiolabeled fatty acid analogs in rats
Assay type: in vivo, Sprague Dawley rats
Details: rat
Experimental: Pharmacokinetic characterization was accomplished by radiometric analysis of heart, blood, lung, kidney, liver and other tissue at various times following administration of the 99mTc-labeled fatty acid analogs to rats. […] Six new compounds were evaluated at up to four time points each (5, 15, 60, and 120 minutes) with a minimum of three animals per time point. Non-anesthetized animals were injected with 20-50 μCi in 100 μl via the tail vein and sacrificed at increasing time points post injection. The organs were excised and counted in a gamma counter. Experiments were also conducted to compare the effects of injection media using 10% ethanol, 10% bovine serum albumin and 7% ursodeoxycholic acid on distribution.

For CC(CCCCCCCCCCCCc1ccc(I)cc1)CC(=O)O (centres unmarked) [BMIPP], the “Percent injected dose per gram, Blood” value (15-min post injection, blood) was 1.30 ± 0.19 Percent injected dose per gram, the “Percent injected dose per gram, Heart” value (15-min post injection, heart) was 4.60 ± 0.63 Percent injected dose per gram and the “Percent injected dose per gram, Kidneys” value (15-min post injection, kidneys) was 4.09 ± 0.82 Percent injected dose per gram. For the same molecule, the “Percent injected dose per gram, Liver” value (15-min post injection, liver) was 2.97 ± 0.56 Percent injected dose per gram, the “Percent injected dose per gram, Lung” value (15-min post injection, lung) was 1.83 ± 0.22 Percent injected dose per gram and the heart-to-blood ratio (at 15 minutes) was 2.2. The heart-to-blood ratio (at 60 minutes) was 1.6, the “blood retention / clearance (in words)” value (blood) was “slow blood clearance” and the “heart accumulation / extraction (in words)” value (heart) was “high extraction into the heart”. For the same molecule, the “uptake in the heart” value (heart, at 15 minutes) was 3.49 percent per organ, the “uptake in the heart” value (heart, at 60 minutes) was 1.62 percent per organ and the “less heart uptake with ethanol injection media than with ursodeoxycholic acid” value (heart, 10% ethanol versus 7% ursodeoxycholic acid injection media) was about 75%. For the same molecule, the liver activity (liver, end of the 45 minute period (60 minutes)) was 7.2 percent per organ and the liver activity (liver, start of the 45 minute period (15 minutes)) was 19.7 percent per organ.
